# Where two headings read alike, the source gives them in different places.
# What was measured:
# human androgen receptor [1] = biological target: T1, human androgen receptor (Homo sapiens, UniProt P10275); assay: Investigation of agonist effects: androgen receptor reporter gene (MMTV-luciferase) assay in 11A11B2 cells; type: cell-based; details: compound concentration showing a transcription activity of 5% (0.1 nmol/L DHT = 100%, assay medium alone = 0%), 48 hours
# T1 construct: expressed in transfected cells
# T1 sequence (P10275 1-920): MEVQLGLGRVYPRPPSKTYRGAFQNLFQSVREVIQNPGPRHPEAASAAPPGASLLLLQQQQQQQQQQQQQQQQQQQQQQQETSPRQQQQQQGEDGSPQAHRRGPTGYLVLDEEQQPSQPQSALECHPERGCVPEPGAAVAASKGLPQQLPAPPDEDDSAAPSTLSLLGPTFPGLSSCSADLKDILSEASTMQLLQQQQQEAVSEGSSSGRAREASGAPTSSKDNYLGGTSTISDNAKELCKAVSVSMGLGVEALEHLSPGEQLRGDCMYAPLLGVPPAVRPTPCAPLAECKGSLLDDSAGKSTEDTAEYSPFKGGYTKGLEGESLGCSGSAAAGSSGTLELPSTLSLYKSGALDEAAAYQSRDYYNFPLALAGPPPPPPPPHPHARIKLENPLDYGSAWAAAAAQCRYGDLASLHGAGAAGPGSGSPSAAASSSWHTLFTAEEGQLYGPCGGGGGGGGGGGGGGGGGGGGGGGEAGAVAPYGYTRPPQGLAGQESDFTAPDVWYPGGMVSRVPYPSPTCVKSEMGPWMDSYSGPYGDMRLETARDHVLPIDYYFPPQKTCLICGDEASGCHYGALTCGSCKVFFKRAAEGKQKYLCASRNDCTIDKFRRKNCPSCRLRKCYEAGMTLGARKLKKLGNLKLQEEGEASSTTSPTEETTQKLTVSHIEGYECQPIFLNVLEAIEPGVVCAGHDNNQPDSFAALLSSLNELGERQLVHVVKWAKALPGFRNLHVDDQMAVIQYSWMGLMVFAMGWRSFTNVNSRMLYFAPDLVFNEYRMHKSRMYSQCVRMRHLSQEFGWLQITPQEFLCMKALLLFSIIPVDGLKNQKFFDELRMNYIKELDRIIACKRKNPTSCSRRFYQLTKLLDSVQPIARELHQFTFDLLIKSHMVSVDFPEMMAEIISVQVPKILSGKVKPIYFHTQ
# Method: (§1) HeLa cells (purchased from Dai-Nippon Seiyaku K.K.) were cultured overnight in Dulbecco's Modified Eagle Medium containing no phenol red, but containing 3% charcoal-treated fetal bovine serum (hereafter referred to as DCC-FBS) (this medium is hereafter referred to as phenol-red-free DMEM). An MMTV-Luc-Hyg vector (reporter plasmid with mouse mammary tumor virus long terminal repeat as an androgen response element: vector obtained by substituting the chloramphenicol acetyl transferease gene of a GM-CAT vector (A.T.C.C No. 67282) purchased from the A.T.C.C. with the firefly luciferase gene, and inserting a hygromycin resistance gene as a drug resistance gene), and pSG5-hAR-neo (human androgen receptor expression vector: a vector having an androgen receptor gene under the control of the SV40 promoter, and having a neomycin resistance gene inserted as a drug resistance gene) were transfected into the HeLa cells using an FuGENE™ 6 Transfection Reagent (obtained from Roche).
# (§2) A clone in which transcription activity was elevated in a dose-dependent manner by dihydrotestosterone was obtained by culturing the transfected cells in DMEM containing 500 μg/mL neomycin, 300 μg/mL hygromycin and 10% fetal bovine serum (hereafter referred to as FBS). The clone cells thus obtained (11A11B2 cells) were maintained and propagated using DMEM containing 400 μg/mL neomycin, 200 μg/mL hygromycin and 10% FBS, and were propagated using phenol-red-free DMEM containing 10% DCC-FBS three to four days prior to the performance of an androgen receptor reporter gene assay.
# The 11A11B2 cells were inoculated in a white clear-bottomed 96-well microplate (COSTAR) so that the cell concentration was 1.0×10^4/well, using phenol-red-free DMEM containing 3% DCC-FBS (hereafter referred to as the assay medium), and were cultured overnight. The assay medium containing the compounds of the examples and compounds of the comparative examples were added so that the final concentrations of the compounds of the examples and compounds of the comparative examples were 1, 10, 100, 1,000 and 10,000 nmol/L (however, in the case of the compounds of Examples 1 and 2, the compounds were added so that the final concentrations were […]), and the cells were cultured for 48 hours, after which the transcription activity value was measured. The transcription activity was measured using a Bright-Glo™ Luciferase Assay System (Promega).
# (§3) The transcription activity rates of the compounds of the examples were calculated from the transcription activity measured by the abovementioned method, with the transcription activity value obtained at 0.1 nmol/L DHT taken as 100%, and the transcription activity value in the case of the assay medium alone taken as 0%. The compound concentration showing a transcription activity of 5% (EC5 value) was calculated from a linear equation for two points on either side of 5%.
# [2] = prostate cancer patients treated with flutamide; cited from earlier work
# androgen receptor = androgen receptor (Homo sapiens, UniProt P10275); details: at a concentration of 10 μmol/L; cited from earlier work
# human androgen receptor [3] = biological target: T1, human androgen receptor; assay: Investigation of antagonist effects: androgen receptor reporter gene (MMTV-luciferase) assay in 11A11B2 cells with 0.1 nmol/L DHT; type: cell-based
# Method: as §1, §2
# After culturing for 48 hours, the transcription activity values were measured. The transcription activity was measured using a Bright-Glo™ Luciferase Assay System (Promega).
# as §3, with “0%.” for “0%. The compound concentration showing a transcription activity of 5% (EC5 value) was calculated from a linear equation for two points on either side of 5%.”
# Accordingly, the value obtained by subtracting the transcription activity rate of Test Example 1 (Investigation of Agonist Activity) from the transcription activity rate of Test Example 2 (Investigation of Antagonist Activity) was used to calculate the compound concentration at which a transcription activity of 50% was shown (IC50 value). The IC50 value was calculated from a linear equation for two points on either side of 50%.
# castrated rats = details: continuously administered for two weeks; cited from earlier work
# [4] = 11A11B2 cells, 0.1 nmol/L DHT, 48 hours, agonist transcription activity rate of Test Example 1 subtracted, read-out: IC50
Structure (SMILES),EC5 (human androgen receptor [1]) [µM],IC50 (human androgen receptor [3]; [4]) [nM],also measured
"CN1C(=S)N(c2ccc(C#N)c(C(F)(F)F)c2)C(=O)C1(C)C [Comparative Example 1, 4-(5-oxo-2-thioxo-3,4,4-trimethyl-1-imidazolidinyl)-2-trifluoromethylbenzonitrile, reference compound]",8e-05,–,–
"CC(=O)NCCN1C(=S)N(c2ccc(C#N)c(C(F)(F)F)c2)C(=O)C1(C)C [Comparative Example 2, 4-[3′-(2″-N-acetylaminoethyl)-4′,4′-dimethyl-5′-oxo-2′-thioxo-1′-imidazolidinyl]-2-trifluoromethylbenzonitrile, reference compound]",3,–,–
"CC(C)(O)C(=O)Nc1ccc([N+](=O)[O-])c(C(F)(F)F)c1 [Comparative Example 4, hydroxyflutamide]",0.01,–,hydroxyflutamide concentration in the blood [2]: several; androgen receptor transcription activity (androgen receptor): increase
"CC1(C)C(=O)N(c2ccc(C#N)c(Cl)c2)C(=S)N1CCCS(N)(=O)=O [Example 1, 3-[3-(3-chloro-4-cyanophenyl)-5,5-dimethyl-4-oxo-2-thioxoimidazolidin-1-yl]propane-1-sulfonic acid amide]",>10,–,IC50 (human androgen receptor [3]): 200 nM
"COc1cc(N2C(=O)C(C)(C)N(CCCS(N)(=O)=O)C2=S)ccc1C#N [Example 2, 3-[3-(4-cyano-3-methoxyphenyl)-5,5-dimethyl-4-oxo-2-thioxoimidazolidin-1-yl]propane-1-sulfonic acid amide]",>10,300,–
"CC1(C)C(=O)N(c2ccc(C#N)c(Cl)c2)C(=S)N1CCCCS(N)(=O)=O [Example 26, 4-[3-(3-chloro-4-cyanophenyl)-5,5-dimethyl-4-oxo-2-thioxoimidazolidin-1-yl]butane-1-sulfonic acid amide]",>10,900,–
"CC1(C)C(=O)N(c2ccc(C#N)c(Cl)c2)C(=S)N1CCCCCS(N)(=O)=O [Example 27, 5-[3-(3-chloro-4-cyanophenyl)-5,5-dimethyl-4-oxo-2-thioxoimidazolidin-1-yl]pentane-1-sulfonic acid amide]",>10,400,–
"CC1(C)C(=O)N(c2ccc(C#N)c(Cl)c2)C(=S)N1CCS(N)(=O)=O [Example 28, 2-[3-(3-chloro-4-cyanophenyl)-5,5-dimethyl-4-oxo-2-thioxoimidazolidin-1-yl]ethane-1-sulfonic acid amide]",>10,400,–
CC(=O)O[C@]1(C(C)=O)CC[C@H]2[C@@H]3C=C(Cl)C4=CC(=O)CC[C@]4(C)[C@H]3CC[C@@]21C [chlormadinone acetate],–,–,weight of the prostate gland (castrated rats): increase
CC(=O)O[C@]1(C(C)=O)CC[C@H]2[C@@H]3C=C(Cl)C4=CC(=O)[C@@H]5C[C@@H]5[C@]4(C)[C@H]3CC[C@@]21C [cyproterone acetate],–,–,weight of the prostate gland (castrated rats): increase
